The source of these data is patent US12435061B2 (priority 2020, dated 2025).

“And” between values parts separate entries of the source, which are not always exact repeats. Equal values may be shown once. Where a name gives a salt, the structure may show the parent alone. Read-outs that look alike come from different tables or passages of the source.

For this experiment, the target named is hTRPV3 (Homo sapiens (Human), UniProt Q8NET8). The experiment can be described thus: Whole-cell patch clamp, hTRPV3 Phase 1 / Phase 2 currents. The format is cell-based. From the text:
Whole-cell patch clamp experiments permit the detection of currents through the TRPV3 channel in the cell line described above. A glass electrode is brought into contact with a single cell and the membrane is then ruptured, permitting control of the voltage of the cell membrane and measurement of currents flowing across the membrane using the amplifier attached to the electrode. A perfusion system permits control of the extracellular solution, including the addition of blockers and activators of the current. The current can be activated by heating this solution to 28° C. or warmer or by addition of 20 μM 2-APB to the solution.
TRPV3 cells were induced 20-48 hours, removed from growth plates, and replated at low density (to attain good single-cell physical separation) on glass coverslips for measurement. In some cases, cells were grown in low density overnight on glass coverslips. Patch clamp recordings were made in the whole-cell mode with a holding potential of −40 mV. Every 5 seconds, a voltage ramp was applied from −120 to +100 mV, 400 ms in duration. Currents elicited were quantified at −80 mV and +80 mV. […] External solution was Ringer's solution described above.
P1 refers to the Phase 1 current for human (h) TRPV3, and P2 refers to the Phase 2 current for human (h) TRPV3.
In Tables 3 and 4, Phase 1 refers to Phase 1 current for human (h) TRPV3 or rat (r) TRPV3, and Phase 2 refers to Phase 2 current for human (h) TRPV3 or rat (r) TRPV3. The hTRPV3 and rTRPV3 assays were performed as described herein. hERG refers to the inhibition the human ERG (hERG) channel. NaV1.5, refers to the pore forming aL-subunit of the voltage-dependent cardiac Na(+) channel and is an integral membrane protein involved in the initiation and conduction of action potentials. hTRPV3 HAMA IC50 refers to the IC50 of TRPV3 cells stably expressed in TRex-293 cells. Solubility Ringer refers to the compounds' solubility in Ringer's solution. LM T1/2 refers to liver microsome half-lives in either rat or human liver microsomes. FLIPR IC50 refers to the IC50 of the test compounds against recombinant hTRPV3 cells.

Setting [1] is: Phase 1 current, inward, whole-cell patch clamp, read-out: hTRPV3 Patch P1 Inwd.
[2] abbreviates: Phase 2 current, inward, whole-cell patch clamp, read-out: hTRPV3 Patch P2 Inwd.
The mark [3] stands for this setting: Phase 1 current, human TRPV3, read-out: hTRPV3 (nM) Phase 1.
The mark [4] stands for this setting: Phase 1 current, read-out: hTRPV3 (nM) (Phase 1).
Where [5] appears, read: Phase 2 current, read-out: hTRPV3 (nM) (Phase 2).

Chain of hTRPV3 (Q8NET8 whole entry, the tested form may be a part): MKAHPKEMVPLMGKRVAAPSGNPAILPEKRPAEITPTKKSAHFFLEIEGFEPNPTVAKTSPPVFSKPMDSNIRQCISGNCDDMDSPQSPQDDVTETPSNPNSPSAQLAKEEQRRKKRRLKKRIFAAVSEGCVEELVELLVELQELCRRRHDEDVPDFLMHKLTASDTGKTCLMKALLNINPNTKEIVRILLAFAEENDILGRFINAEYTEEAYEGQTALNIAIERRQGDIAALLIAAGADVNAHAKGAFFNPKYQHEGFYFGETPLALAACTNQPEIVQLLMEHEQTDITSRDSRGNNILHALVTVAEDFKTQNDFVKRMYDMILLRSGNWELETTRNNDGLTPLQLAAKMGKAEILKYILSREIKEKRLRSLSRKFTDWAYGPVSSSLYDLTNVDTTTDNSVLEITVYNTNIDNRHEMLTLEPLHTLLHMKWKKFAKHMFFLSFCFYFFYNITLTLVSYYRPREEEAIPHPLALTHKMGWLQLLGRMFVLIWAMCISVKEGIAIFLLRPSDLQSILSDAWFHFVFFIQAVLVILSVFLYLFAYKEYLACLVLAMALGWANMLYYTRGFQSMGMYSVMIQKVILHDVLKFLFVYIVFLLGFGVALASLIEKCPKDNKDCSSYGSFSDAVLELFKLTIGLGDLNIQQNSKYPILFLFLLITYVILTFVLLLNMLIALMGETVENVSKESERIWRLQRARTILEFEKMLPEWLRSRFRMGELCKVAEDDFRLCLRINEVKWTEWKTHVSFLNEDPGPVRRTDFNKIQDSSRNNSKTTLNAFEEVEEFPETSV

As to “2-(1-o-tolylpyrrolidin-3-yloxy)-5-(trifluoromethyl)pyridine [Compound 1-1]”, the IC50 is over 1000 nM under setting [1] and over 1000 nM under setting [2].
With “5-(2-isopropylphenoxy)-2-(1-(pyrazine-2-carbonyl)pyrrolidin-3-yl)benzamide [Compound 2-103]”, the IC50 is about 5250 nM under setting [3] and over 1000 nM under setting [1].
In the case of `Cc1cccc(C(=O)c2ccc(C3CCN(C(=O)c4ncccc4Cl)C3)c(CO)c2)c1` (single isomer, unassigned) [Compound 2-3], the IC50 under setting [1] was in the range of 10 to 100 nM.
Consider `Cc1cccc(C(O)c2ccc(C3CCN(C(=O)c4ncccc4Cl)C3)c(CO)c2)c1` (single isomer, unassigned) [Compound 2-8], for which the IC50 reads like this: under setting [3], over 3200 nM; under setting [1], over 1000 nM.
As for `CC(C)(C)NS(=O)(=O)c1cc(-c2ccccc2)ccc1N1CCC(Oc2ccc(C(F)(F)F)cn2)C1` (stereo in doubt) [Compound 1-96, (S)—N-tert-butyl-4-(3-(5-(trifluoromethyl)pyridin-2-yloxy)pyrrolidin-1-yl)biphenyl-3-sulfonamide], the IC50 by setting is: under setting [1], over 1000 nM; under setting [4], over 3200 nM; under setting [2], over 1000 nM; under setting [5], over 3200 nM.
In the case of `NC(=O)c1cc(-c2ccccc2)ccc1N1CC[C@H](Nc2ccc(C(F)(F)F)cn2)C1` (stereo in doubt) [Compound 1-375], the IC50 under setting [4] was > 1000 nM and ~5500 nM; the IC50 under setting [5] was > 1000 nM and ~2850 nM.
`N#Cc1ccccc1N1CCC(Oc2ccc(C(F)(F)F)cn2)C1` (centres unmarked) [Compound 1-5]: the IC50 was over 1000 nM under setting [1] and over 1000 nM under setting [2].
For `N#Cc1ccccc1N1CC[C@@H](Oc2ccc(C(F)(F)F)cn2)C1` [Compound 1-9, (R)-2-(3-(5-(trifluoromethyl)pyridin-2-yloxy)pyrrolidin-1-yl)benzonitrile], the IC50 under setting [1] was over 1000 nM.
For the molecule `N#Cc1ccccc1N1CC[C@H](Oc2ccc(C(F)(F)F)cn2)C1` [Compound 1-11, (S)-2-(3-(5-(trifluoromethyl)pyridin-2-yloxy)pyrrolidin-1-yl)benzonitrile], the IC50 under setting [1] was over 1000 nM.
Take `NCc1ccccc1N1CC[C@H](Oc2ccc(C(F)(F)F)cn2)C1` [Compound 1-13, (S)-(2-(3-(5-(trifluoromethyl)pyridin-2-yloxy)pyrrolidin-1-yl)phenyl)methanamine HCl salt]: the IC50 was over 1000 nM under setting [1] and over 1000 nM under setting [2].
Consider `CC(C)Oc1ccccc1N1CC[C@H](Oc2ccc(C(F)(F)F)cn2)C1` [Compound 1-15, (S)-2-(1-(2-isopropoxyphenyl)pyrrolidin-3-yloxy)-5-(trifluoromethyl)pyridine], for which the IC50 runs as follows: under setting [1], over 1000 nM; under setting [2], over 1000 nM.
Consider `NCc1ccccc1N1CC[C@@H](Oc2ccc(C(F)(F)F)cn2)C1` [Compound 1-20, (R)-(2-(3-(5-(trifluoromethyl)pyridin-2-yloxy)pyrrolidin-1-yl)phenyl)methanamine], for which the IC50 reads like this: under setting [1], over 1000 nM; under setting [2], over 1000 nM.
Take `N#Cc1ccc(N2CC[C@H](Oc3ccc(C(F)(F)F)cn3)C2)c(C(N)=O)c1` [Compound 1-23, (S)-5-cyano-2-(3-(5-(trifluoromethyl)pyridin-2-yloxy)pyrrolidin-1-yl)benzamide]: the IC50 under setting [1] was over 1000 nM.
On the same count and under the same terms, the same measure for `O=C(O)c1ccccc1N1CC[C@H](Oc2ccc(C(F)(F)F)cn2)C1` [Compound 1-24, (S)-2-(3-(5-(trifluoromethyl)pyridin-2-yloxy)pyrrolidin-1-yl)benzoic acid]: over 1000 nM; for `FC(F)(F)c1ccc(O[C@H]2CCN(c3ccccc3OC3CCCC3)C2)nc1` [Compound 1-25, (S)-2-(1-(2-(cyclopentyloxy)phenyl)pyrrolidin-3-yloxy)-5-(trifluoromethyl)pyridine]: over 1000 nM.
On the same count and under the same terms, the same measure for `FC(F)(F)c1ccc(O[C@H]2CCN(c3ccccc3OCc3ccccc3)C2)nc1` [Compound 1-26, (S)-2-(1-(2-(benzyloxy)phenyl)pyrrolidin-3-yloxy)-5-(trifluoromethyl)pyridine]: over 1000 nM; for `N#Cc1ccc(N2CC[C@@H](Oc3ccc(C(F)(F)F)cn3)C2)c(C(N)=O)c1` [Compound 1-34, (R)-5-cyano-2-(3-(5-(trifluoromethyl)pyridin-2-yloxy)pyrrolidin-1-yl)benzamide]: over 1000 nM; for `NCc1ccc(N2CC[C@H](Oc3ccc(C(F)(F)F)cn3)C2)c(C(N)=O)c1` [Compound 1-35]: over 1000 nM.
Regarding `FC(F)(F)c1ccc(O[C@@H]2CCN(c3ccccc3OC3CCCC3)C2)nc1` [Compound 1-36, (R)-2-(1-(2-(cyclopentyloxy)phenyl)pyrrolidin-3-yloxy)-5-(trifluoromethyl)pyridine], under setting [1], the IC50 was over 1000 nM.
The same measure, in the same setting: the same measure for `CC(C)Oc1ccccc1N1CC[C@@H](Oc2ccc(C(F)(F)F)cn2)C1` [Compound 1-37, (R)-2-(1-(2-isopropoxyphenyl)pyrrolidin-3-yloxy)-5-(trifluoromethyl)pyridine]: over 1000 nM; for `FC(F)(F)c1ccc(O[C@@H]2CCN(c3ccccc3OCc3ccccc3)C2)nc1` [Compound 1-38, (R)-2-(1-(2-(benzyloxy)phenyl)pyrrolidin-3-yloxy)-5-(trifluoromethyl)pyridine]: over 1000 nM; for `CNC(=O)c1ccccc1N1CC[C@H](Oc2ccc(C(F)(F)F)cn2)C1` [Compound 1-39, (S)—N-methyl-2-(3-(5-(trifluoromethyl)pyridin-2-yloxy)pyrrolidin-1-yl)benzamide]: over 1000 nM.
`O=C(O)c1ccccc1N1CC[C@@H](Oc2ccc(C(F)(F)F)cn2)C1` [Compound 1-41, (R)-2-(3-(5-(trifluoromethyl)pyridin-2-yloxy)pyrrolidin-1-yl)benzoic acid]: the IC50 by setting is: under setting [1], over 1000 nM; under setting [2], over 1000 nM.
Consider `NCc1ccc(N2CC[C@@H](Oc3ccc(C(F)(F)F)cn3)C2)c(C(N)=O)c1` [Compound 1-45], for which the IC50 under setting [1] was over 1000 nM.
Take `CC(C)NC(=O)c1ccccc1N1CC[C@H](Oc2ccc(C(F)(F)F)cn2)C1` [Compound 1-46, (S)—N-isopropyl-2-(3-(5-(trifluoromethyl)pyridin-2-yloxy)pyrrolidin-1-yl)benzamide]: the IC50 under setting [1] is over 1000 nM.
On to `CNC(=O)c1ccccc1N1CC[C@@H](Oc2ccc(C(F)(F)F)cn2)C1` [Compound 1-47, (R)—N-methyl-2-(3-(5-(trifluoromethyl)pyridin-2-yloxy)pyrrolidin-1-yl)benzamide], for which the IC50 under setting [1] is over 1000 nM.
Turning to `CC(C)NC(=O)c1ccccc1N1CC[C@@H](Oc2ccc(C(F)(F)F)cn2)C1` [Compound 1-49, (R)—N-isopropyl-2-(3-(5-(trifluoromethyl)pyridin-2-yloxy)pyrrolidin-1-yl)benzamide], the IC50 under setting [1] is over 1000 nM.
As to `O=C(NCc1ccccc1)c1ccccc1N1CC[C@@H](Oc2ccc(C(F)(F)F)cn2)C1` [Compound 1-50, (R)—N-benzyl-2-(3-(5-(trifluoromethyl)pyridin-2-yloxy)pyrrolidin-1-yl)benzamide], the IC50 under setting [1] is over 1000 nM and the IC50 under setting [2] is over 1000 nM.
Regarding `O=C(NCc1ccccc1)c1ccccc1N1CC[C@H](Oc2ccc(C(F)(F)F)cn2)C1` [Compound 1-51, (S)—N-benzyl-2-(3-(5-(trifluoromethyl)pyridin-2-yloxy)pyrrolidin-1-yl)benzamide], under setting [2], the IC50 was over 1000 nM.
As for `O=C(c1ccccc1N1CC[C@H](Oc2ccc(C(F)(F)F)cn2)C1)N(Cc1ccccc1)Cc1ccccc1` [Compound 1-52, (S)—N,N-dibenzyl-2-(3-(5-(trifluoromethyl)pyridin-2-yloxy)pyrrolidin-1-yl)benzamide], the IC50 under setting [1] is over 1000 nM.
For the molecule `O=C(c1ccccc1N1CC[C@@H](Oc2ccc(C(F)(F)F)cn2)C1)N(Cc1ccccc1)Cc1ccccc1` [Compound 1-53, (R)—N,N-dibenzyl-2-(3-(5-(trifluoromethyl)pyridin-2-yloxy)pyrrolidin-1-yl)benzamide], under setting [1], the IC50 is over 1000 nM.
As for `CC(C)(C)OC(=O)c1ccccc1N1CC[C@H](Oc2ccc(C(F)(F)F)cn2)C1` [Compound 1-54, (S)-tert-butyl 2-(3-(5-(trifluoromethyl)pyridin-2-yloxy)pyrrolidin-1-yl)benzoate], the IC50 under setting [1] was over 1000 nM.
`CC(C)(C)OC(=O)c1ccccc1N1CC[C@@H](Oc2ccc(C(F)(F)F)cn2)C1` [Compound 1-55, (R)-tert-butyl 2-(3-(5-(trifluoromethyl)pyridin-2-yloxy)pyrrolidin-1-yl)benzoate]: the IC50 is, setting by setting: under setting [1], over 1000 nM; under setting [2], over 1000 nM.
